The source made the active and inactive calls.
Columns and labels:
Assay type in all cases: functional
[1] = target: T1, Sentrin-specific protease 6 (Homo sapiens, UniProt Q9GZR1);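 note: Luminescence-based dose-response confirmatory assay of SENP6 inhibition, following up an ultra-high-throughput screen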
T1 sequence (Q9GZR1 whole entry): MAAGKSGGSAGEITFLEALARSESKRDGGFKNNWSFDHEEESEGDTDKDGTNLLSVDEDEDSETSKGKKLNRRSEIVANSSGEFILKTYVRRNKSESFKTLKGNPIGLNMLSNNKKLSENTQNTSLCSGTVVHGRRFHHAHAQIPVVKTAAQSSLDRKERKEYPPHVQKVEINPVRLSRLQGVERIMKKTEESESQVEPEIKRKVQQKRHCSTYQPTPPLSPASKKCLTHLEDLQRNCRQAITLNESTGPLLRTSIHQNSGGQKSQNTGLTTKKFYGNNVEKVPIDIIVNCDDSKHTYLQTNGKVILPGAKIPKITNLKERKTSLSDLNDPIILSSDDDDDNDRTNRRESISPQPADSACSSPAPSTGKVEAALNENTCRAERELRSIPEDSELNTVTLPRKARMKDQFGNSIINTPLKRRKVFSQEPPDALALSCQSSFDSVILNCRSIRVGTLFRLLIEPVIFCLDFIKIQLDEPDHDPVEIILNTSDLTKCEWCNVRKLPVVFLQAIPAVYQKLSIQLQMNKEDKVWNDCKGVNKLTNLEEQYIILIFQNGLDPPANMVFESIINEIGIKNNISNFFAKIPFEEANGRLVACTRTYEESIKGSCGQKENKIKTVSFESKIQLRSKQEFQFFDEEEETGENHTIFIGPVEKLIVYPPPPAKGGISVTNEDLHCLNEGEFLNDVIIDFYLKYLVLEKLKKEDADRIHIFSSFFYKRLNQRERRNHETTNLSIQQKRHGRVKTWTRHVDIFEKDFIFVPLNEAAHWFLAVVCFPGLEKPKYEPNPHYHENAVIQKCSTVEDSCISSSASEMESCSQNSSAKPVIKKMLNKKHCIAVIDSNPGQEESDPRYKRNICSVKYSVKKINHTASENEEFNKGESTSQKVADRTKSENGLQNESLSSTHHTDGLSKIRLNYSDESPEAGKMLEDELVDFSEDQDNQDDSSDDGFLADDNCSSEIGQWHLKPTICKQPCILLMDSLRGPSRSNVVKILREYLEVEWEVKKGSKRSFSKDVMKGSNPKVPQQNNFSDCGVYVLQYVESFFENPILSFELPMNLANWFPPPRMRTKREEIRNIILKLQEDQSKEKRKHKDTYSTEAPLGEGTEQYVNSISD

[2] = target: T2, Sentrin-specific protease 8 (Homo sapiens, UniProt Q96LD8);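 note: luminescence read-out of SENP8 inhibition, dose-response confirmation following an ultra-high-throughput screen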
T2 sequence (Q96LD8 whole entry): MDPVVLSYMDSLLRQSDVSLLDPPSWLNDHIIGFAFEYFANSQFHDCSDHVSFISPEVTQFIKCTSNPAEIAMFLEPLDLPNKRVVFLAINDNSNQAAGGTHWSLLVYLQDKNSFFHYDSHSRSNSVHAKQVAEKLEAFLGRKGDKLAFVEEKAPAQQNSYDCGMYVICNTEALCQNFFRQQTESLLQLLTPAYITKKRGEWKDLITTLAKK

Insulin receptor = Insulin receptor (Homo sapiens, UniProt P06213);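 note: insulin receptor kinase tested as one member of a kinome-wide kinase panel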
[3] = target: STE20-like serine/threonine-protein kinase (Homo sapiens, UniProt Q9H2G2)
[4] = target: Serine/threonine-protein kinase Chk2 (Homo sapiens, UniProt O96017);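 note: CHEK2 entry within a kinome-wide screening panel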
[5] = target: Serine/threonine-protein kinase Nek4 (Homo sapiens, UniProt P51957)
[6] = target: Tyrosine-protein kinase Srms (Homo sapiens, UniProt Q9H3Y6);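 note: SRMS measured as one member of a kinome-wide kinase profiling panel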
[7] = target: Phosphorylase b kinase gamma catalytic chain, liver/testis isoform (Homo sapiens, UniProt P15735);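 note: PHKG2 measured as one member of a kinome-wide kinase panel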
[8] = target: Serine/threonine-protein kinase pim-3 (Homo sapiens, UniProt Q86V86);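 note: value obtained as one member of a broad kinase panel profiling effort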
[9] = target: Serine/threonine-protein kinase 3 (Homo sapiens, UniProt Q13188);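 note: measured as one member of a kinome-wide kinase panel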
Focal adhesion kinase 1 = Focal adhesion kinase 1 (Homo sapiens, UniProt Q05397);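 note: measured as one member of a kinome panel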
[10] = target: Maternal embryonic leucine zipper kinase (Homo sapiens, UniProt Q14680)
[11] = target: Dual specificity tyrosine-phosphorylation-regulated kinase 4 (Homo sapiens, UniProt Q9NR20)
[12] = target: cGMP-dependent protein kinase 1 (Homo sapiens, UniProt Q13976);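 note: value from a kinome panel screen with PRKG1 as the panel member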
[13] = target: Serine/threonine-protein kinase PAK 1 (Homo sapiens, UniProt Q13153)
[14] = target: Tyrosine-protein kinase receptor UFO (Homo sapiens, UniProt P30530)
[15] = target: Testis-specific serine/threonine-protein kinase 1 (Homo sapiens, UniProt Q9BXA7)
[16] = target: Serine/threonine-protein kinase PLK3 (Homo sapiens, UniProt Q9H4B4)
[17] = target: Fibroblast growth factor receptor 3 (Homo sapiens, UniProt P22607)
[18] = target: MAP kinase-interacting serine/threonine-protein kinase 2 (Homo sapiens, UniProt Q9HBH9)
[19] = target: cAMP-dependent protein kinase catalytic subunit PRKX (Homo sapiens, UniProt P51817)
[20] = target: Dual specificity tyrosine-phosphorylation-regulated kinase 1A (Homo sapiens, UniProt Q13627);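 note: measured against DYRK1A as one member of a broad kinome profiling panel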
[21] = target: Serine/threonine-protein kinase TBK1 (Homo sapiens, UniProt Q9UHD2); experiment: Navigating the Kinome. Panel member name: TBK1
[22] = target: Calcium/calmodulin-dependent protein kinase type II subunit alpha (Homo sapiens, UniProt Q9UQM7); experiment: Navigating the Kinome. Panel member name: CAMK2A
[23] = target: Dual specificity protein kinase CLK4 (Homo sapiens, UniProt Q9HAZ1)
[24] = target: cAMP-dependent protein kinase catalytic subunit alpha (Homo sapiens, UniProt P17612)
[25] = target: Leukocyte tyrosine kinase receptor (Homo sapiens, UniProt P29376); experiment: Navigating the Kinome. Panel member name: LTK
[26] = target: G protein-coupled receptor kinase 5 (Homo sapiens, UniProt P34947); experiment: Navigating the Kinome. Panel member name: GPRK5

Chain of Tyrosine-protein kinase Srms (Q9H3Y6 whole entry, canonical isoform): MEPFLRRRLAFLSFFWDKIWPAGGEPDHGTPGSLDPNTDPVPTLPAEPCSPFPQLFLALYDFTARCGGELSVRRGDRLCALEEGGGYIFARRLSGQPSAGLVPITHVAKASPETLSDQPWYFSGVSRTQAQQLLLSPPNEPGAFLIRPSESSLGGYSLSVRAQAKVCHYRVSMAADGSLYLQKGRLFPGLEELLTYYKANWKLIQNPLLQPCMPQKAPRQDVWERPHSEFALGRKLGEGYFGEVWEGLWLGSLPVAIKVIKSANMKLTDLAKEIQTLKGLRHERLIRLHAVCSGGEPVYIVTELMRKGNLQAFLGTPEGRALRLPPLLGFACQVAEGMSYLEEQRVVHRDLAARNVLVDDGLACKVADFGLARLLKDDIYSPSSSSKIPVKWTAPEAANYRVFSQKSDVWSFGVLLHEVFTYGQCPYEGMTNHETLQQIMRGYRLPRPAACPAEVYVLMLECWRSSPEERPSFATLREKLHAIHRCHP
Chain of Fibroblast growth factor receptor 3 (P22607 whole entry): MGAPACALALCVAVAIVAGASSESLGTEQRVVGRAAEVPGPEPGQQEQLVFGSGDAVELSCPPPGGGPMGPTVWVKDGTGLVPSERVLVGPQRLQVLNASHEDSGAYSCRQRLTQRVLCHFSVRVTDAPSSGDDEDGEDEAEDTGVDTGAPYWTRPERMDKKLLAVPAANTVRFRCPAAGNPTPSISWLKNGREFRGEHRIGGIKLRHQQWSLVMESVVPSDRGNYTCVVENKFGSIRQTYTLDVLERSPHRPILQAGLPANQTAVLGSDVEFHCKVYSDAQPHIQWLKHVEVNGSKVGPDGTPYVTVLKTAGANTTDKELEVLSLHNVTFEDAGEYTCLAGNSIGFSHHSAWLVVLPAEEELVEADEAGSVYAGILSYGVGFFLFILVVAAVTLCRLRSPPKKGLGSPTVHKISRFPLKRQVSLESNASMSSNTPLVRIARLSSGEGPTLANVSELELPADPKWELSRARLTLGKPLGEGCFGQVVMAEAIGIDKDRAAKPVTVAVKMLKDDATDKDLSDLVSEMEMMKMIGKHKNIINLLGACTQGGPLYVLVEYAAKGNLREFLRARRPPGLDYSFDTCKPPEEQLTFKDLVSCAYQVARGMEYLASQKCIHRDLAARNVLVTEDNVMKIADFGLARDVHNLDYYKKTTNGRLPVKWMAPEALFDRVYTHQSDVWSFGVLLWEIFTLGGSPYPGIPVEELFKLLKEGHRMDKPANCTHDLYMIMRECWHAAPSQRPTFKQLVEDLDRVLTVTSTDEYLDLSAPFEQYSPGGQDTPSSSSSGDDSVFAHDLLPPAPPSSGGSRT
Chain of Dual specificity tyrosine-phosphorylation-regulated kinase 4 (Q9NR20 whole entry): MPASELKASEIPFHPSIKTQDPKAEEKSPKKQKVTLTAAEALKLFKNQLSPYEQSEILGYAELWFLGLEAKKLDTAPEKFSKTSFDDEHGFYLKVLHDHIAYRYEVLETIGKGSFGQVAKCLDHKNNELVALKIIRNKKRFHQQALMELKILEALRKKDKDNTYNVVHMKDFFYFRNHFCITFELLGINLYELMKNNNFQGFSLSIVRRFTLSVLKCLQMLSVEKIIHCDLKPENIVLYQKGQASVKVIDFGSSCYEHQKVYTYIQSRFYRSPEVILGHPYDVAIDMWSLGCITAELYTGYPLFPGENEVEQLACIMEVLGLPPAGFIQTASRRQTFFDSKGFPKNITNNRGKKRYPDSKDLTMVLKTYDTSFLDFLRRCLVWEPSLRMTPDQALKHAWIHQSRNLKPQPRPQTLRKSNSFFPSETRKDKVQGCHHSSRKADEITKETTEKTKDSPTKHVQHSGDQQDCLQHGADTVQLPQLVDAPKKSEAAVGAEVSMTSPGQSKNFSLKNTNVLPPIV
Chain of Tyrosine-protein kinase receptor UFO (P30530 whole entry): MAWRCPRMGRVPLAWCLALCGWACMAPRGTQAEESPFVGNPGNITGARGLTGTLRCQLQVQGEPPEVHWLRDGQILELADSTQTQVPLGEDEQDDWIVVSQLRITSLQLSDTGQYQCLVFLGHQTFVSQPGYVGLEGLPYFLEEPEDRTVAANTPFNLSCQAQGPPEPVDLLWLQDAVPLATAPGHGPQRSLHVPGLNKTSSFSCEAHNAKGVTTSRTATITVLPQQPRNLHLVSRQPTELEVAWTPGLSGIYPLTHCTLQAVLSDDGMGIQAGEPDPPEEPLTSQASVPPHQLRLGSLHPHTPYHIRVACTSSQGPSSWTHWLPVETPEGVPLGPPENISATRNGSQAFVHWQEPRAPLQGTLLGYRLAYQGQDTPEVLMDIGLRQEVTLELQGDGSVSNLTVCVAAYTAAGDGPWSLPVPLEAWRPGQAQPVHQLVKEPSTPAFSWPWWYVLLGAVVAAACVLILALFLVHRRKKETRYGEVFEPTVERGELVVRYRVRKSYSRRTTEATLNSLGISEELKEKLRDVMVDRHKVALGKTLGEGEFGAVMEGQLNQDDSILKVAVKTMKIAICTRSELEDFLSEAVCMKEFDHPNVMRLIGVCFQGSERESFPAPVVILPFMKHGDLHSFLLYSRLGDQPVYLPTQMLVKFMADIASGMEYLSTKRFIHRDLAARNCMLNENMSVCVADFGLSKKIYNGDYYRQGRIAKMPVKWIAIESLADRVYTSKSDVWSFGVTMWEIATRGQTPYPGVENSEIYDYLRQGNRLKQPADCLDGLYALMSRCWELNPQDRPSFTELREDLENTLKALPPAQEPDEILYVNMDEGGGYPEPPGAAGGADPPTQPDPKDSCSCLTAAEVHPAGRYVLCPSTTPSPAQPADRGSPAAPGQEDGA
Chain of Focal adhesion kinase 1 (Q05397 whole entry): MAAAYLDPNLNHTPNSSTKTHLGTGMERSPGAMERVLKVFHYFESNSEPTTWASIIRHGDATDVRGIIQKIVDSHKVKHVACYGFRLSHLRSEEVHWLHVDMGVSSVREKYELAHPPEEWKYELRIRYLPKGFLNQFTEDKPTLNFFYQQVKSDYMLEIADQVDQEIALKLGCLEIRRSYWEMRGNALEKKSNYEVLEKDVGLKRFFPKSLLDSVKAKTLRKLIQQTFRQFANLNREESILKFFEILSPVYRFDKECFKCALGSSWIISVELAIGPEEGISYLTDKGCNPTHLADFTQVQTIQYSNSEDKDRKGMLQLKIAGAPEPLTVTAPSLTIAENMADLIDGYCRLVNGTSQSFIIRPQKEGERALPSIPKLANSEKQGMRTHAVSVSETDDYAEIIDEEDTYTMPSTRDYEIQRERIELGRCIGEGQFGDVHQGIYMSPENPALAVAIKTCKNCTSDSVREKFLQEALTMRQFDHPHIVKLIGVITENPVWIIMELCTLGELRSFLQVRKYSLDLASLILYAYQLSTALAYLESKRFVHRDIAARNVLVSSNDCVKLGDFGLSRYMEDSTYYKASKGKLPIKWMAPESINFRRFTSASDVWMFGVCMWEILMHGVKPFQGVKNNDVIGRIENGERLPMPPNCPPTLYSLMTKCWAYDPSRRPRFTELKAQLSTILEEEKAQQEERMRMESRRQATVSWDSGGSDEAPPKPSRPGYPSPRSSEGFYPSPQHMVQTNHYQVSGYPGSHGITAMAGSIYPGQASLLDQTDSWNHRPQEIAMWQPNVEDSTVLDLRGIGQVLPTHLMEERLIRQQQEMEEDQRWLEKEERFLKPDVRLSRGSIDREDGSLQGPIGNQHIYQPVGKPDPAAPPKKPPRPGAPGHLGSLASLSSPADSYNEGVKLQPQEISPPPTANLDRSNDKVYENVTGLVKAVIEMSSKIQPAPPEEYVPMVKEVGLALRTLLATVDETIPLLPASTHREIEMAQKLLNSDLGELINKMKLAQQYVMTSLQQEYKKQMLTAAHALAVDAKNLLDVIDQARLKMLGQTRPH
Chain of Phosphorylase b kinase gamma catalytic chain, liver/testis isoform (P15735 whole entry, canonical isoform): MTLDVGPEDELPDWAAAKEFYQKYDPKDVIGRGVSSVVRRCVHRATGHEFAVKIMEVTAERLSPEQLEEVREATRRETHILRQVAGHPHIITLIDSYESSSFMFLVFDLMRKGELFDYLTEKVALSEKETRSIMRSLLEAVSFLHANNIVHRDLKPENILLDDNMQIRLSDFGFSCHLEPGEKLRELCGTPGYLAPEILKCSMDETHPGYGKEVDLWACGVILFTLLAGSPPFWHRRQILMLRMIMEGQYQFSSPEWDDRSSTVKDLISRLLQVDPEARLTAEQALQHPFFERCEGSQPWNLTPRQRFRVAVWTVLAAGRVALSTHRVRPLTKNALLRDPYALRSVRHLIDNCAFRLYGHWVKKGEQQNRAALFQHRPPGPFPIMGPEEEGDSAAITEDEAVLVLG
Chain of Serine/threonine-protein kinase PLK3 (Q9H4B4 whole entry): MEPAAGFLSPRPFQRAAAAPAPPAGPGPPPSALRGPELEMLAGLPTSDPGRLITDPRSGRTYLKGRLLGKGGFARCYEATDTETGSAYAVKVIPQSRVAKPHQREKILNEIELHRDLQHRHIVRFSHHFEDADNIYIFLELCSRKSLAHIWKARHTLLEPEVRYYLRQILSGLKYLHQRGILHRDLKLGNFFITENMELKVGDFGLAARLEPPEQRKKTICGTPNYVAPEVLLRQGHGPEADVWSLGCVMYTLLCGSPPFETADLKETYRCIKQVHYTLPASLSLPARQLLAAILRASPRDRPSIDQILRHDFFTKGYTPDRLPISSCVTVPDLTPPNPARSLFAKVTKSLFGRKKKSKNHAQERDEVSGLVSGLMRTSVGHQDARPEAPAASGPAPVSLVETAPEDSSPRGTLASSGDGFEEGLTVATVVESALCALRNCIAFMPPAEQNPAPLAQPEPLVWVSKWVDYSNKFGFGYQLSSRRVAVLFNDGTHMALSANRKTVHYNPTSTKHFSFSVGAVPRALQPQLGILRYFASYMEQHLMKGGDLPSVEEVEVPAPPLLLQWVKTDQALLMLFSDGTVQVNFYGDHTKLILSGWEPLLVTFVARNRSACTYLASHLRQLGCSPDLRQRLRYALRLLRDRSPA

`COc1ccc(-n2c(NC(=O)c3ccco3)c(C#N)c3nc4ccccc4nc32)cc1` was tested, and the IC50 [1] was 4070 nM (active) and the IC50 [2] was 7570 nM (active).

In the case of `Cc1n[nH]c2ccc(-c3cncc(OCC(N)Cc4ccc(Cl)c(Cl)c4)c3)cc12` (stereo not drawn), the Ki (Insulin receptor) is reported as 2510 nM (active), the Ki [3] is reported as 1580 nM (active) and the Ki [4] is reported as 398 nM (active). For the same molecule, the Ki [5] was 126 nM (active), the Ki [6] was > 1580 nM (inactive) and the Ki [7] was 1000 nM (active). The Ki [8] was 15.8 nM (active), the Ki [9] was 63.1 nM (active) and the Ki (Focal adhesion kinase 1) was > 1580 nM (inactive). For the same molecule, the Ki [10] was 200 nM (active), the Ki [11] was 1000 nM (active) and the Ki [12] was 7.94 nM (active). For the same molecule, the Ki [13] was 794 nM (active), the Ki [14] was 200 nM (active) and the Ki [15] was 100 nM (active). For the same molecule, the Ki [16] was > 7940 nM (inactive), the Ki [17] was > 2000 nM (inactive) and the Ki [18] was 251 nM (active).

For `[2H]C([2H])([2H])Oc1cccc(C(C)NC(=O)c2sc(-c3ccncc3)nc2C)c1` (stereo not drawn), the Ki [19] was > 3160 nM (inactive), the Ki [20] was > 2000 nM (inactive) and the Ki [21] was > 3160 nM (inactive). For the same molecule, the Ki [22] was > 3980 nM (inactive), the Ki [23] was > 2510 nM (inactive) and the Ki [24] was > 1260 nM (inactive). The Ki [25] was > 2510 nM (inactive) and the Ki [26] was 3160 nM (active).

From ChEMBL document CHEMBL1201862, “PubChem BioAssay data set” (2004)
